Test results: patent US20040266805A1, “Inflammation modulatory compound” (priority 2001, published 2004)
“And” between values parts separate entries of the source, which are not always exact repeats. Equal entries are not always repeated.

What was measured:
[1] = system: Adjuvant arthritis (AA) in adult male Wistar rats; test: Intraplantar treatment with endomorphin 1 prior to onset of inflammation in adjuvant arthritis rats; assay type: in vivo, rat; conditions: for Mean Paw Volume: days 9-13, day 14, vehicle 2.924
Protocol: (§1) Adjuvant arthritis (AA) was induced in adult male Wistar rats by a single intradermal injection (0.1 ml) of a suspension of ground, heat-killed M. butyricum in paraffin oil (10 mg/ml) into the tail base (9). Rats were despatched 14 days following injection and spleens, thymuses and hind paws were collected on dry ice and stored at −80° C. Spleens, thymuses and synovial tissue from the paws were acid-extracted and the extracts were measured for the presence of EM-1 and EM-2 by RIAs (8). EM-1 contents in the spleen (p<0.05) and thymus (p<0.075) were elevated compared to tissues from non-AA controls (FIG. 4). […] Neither EM-1 or EM-2 were detectable in extracts of synovial tissues from control non-AA rats (FIG. 5).
(§2) Adjuvant arthritis (AA) was induced in adult male Wistar rats using the same protocol as described in Example 2 with saline vehicle or endomorphin 1 in saline being injected on days 9, 10, 11, 12 and 13 after adjuvant injection and prior to the onset of inflammation.

[2] = system: arthritic male Wistar rats; test: Intraperitoneal administration of EM-1 prior to onset of inflammation in arthritic rats; assay type: in vivo, rat; parameters: Mean Paw Volume: unit not given beside the values; conditions: for Mean Paw Volume: n=7
Protocol: as §2
The protocol of Example 3 above was followed using intraperitoneal injection of 0.1 and 1.0 μmol Endomorphin-1 or vehicle in arthritic male Wistar rats prior to the onset of inflammation.
EM-1 or vehicle was administered on days 9, 10, 11, 12 and 13.

[3] = system: rat Fas in splenocytes and thymocytes; test: Fas expression by antibody staining and flow cytometry; assay type: cell-based; conditions: basal or ConA activated splenocytes and thymocytes, cultured 6 h
Protocol: Splenocytes and thymocytes, whether basal or ConA activated, were cultured for 6h in the presence of EM-1, EM-2 or morphine (concentration ranges as above) and were then stained with an antibody specific for rat Fas (Transduction Laboratories, Lexington, Ky., USA) and analysed by flow cytometry.

[4] = system: Adjuvant arthritis (AA) in adult male Lewis rats; test: Intraperitoneal treatment of existing inflammation with endomorphin in adjuvant arthritis rats; assay type: in vivo, rat
Protocol: as §1
Adjuvant arthritis (AA) was induced in adult male Lewis rats as above. Saline vehicle or 1 μmol of endomorphin in saline was given as an intraperitoneal (ip) injection on days 11, 12 and 13 after adjuvant injection, and after the onset of inflammation, to assess the modulation effect of the endomorphin.

[5] = system: Splenocytes and thymocytes; test: Apoptosis by Annexin-V staining and flow cytometry; assay type: cell-based, rat; conditions: for Effect on apoptosis in cells following any of the culture periods: culture 6, 24, 48 or 72 h; for Effect on ConA-induced apoptosis in thymocytes: morphine 10^−8 to 10^−18 mol/l; for Effect on apoptosis in basal non-activated splenocytes and thymocytes: pre-incubation 1 h, basal apoptosis 4-8%
Protocol: Splenocytes and thymocytes obtained from adult male Wistar rats were cultured as previously described (10). Cells were incubated with EM-1, EM-2 or morphine at various concentrations for 1 h and were then activated with either Concanavalin A (ConA, 5 μg/ml, Sigma UK) or lipopolysaccharide (LPS, 25 μg/ml, Sigma, UK) and cultured for 6, 24, 48 or 72 h. After culture, cells were stained with Annexin-V-Fluos (Roche, Mannheim, Germany) and analysed by flow cytometry (Becton Dickinson, UK). Apoptosis in basal non-activated splenocytes and thymocytes was 4-8%, and pre-incubation with EM-1, EM-2 or morphine had no effect on this. ConA at 1 or 5 μg/ml induced 10-15 and 20-30% apoptosis respectively in rat splenocytes, values which were not altered by pre-incubation with EM-2 at concentrations of 10^−8 to 10^−18 mol/l. […] No effect of morphine, EM-1 or EM-2 was observed on apoptosis in cells following any of the culture periods.

Compound | Mean Paw Volume ([1]; 10 pmol intraplantar, n=14) [mL] | Mean Paw Volume ([1]; 100 pmol intraplantar, n=14) [mL] | Mean Paw Volume ([1]; 1 nmol intraplantar, n=12) [mL] | Mean Paw Volume ([1]; 10 nmol intraplantar, n=14) [mL] | Mean Paw Volume ([1]; 100 fmol intraplantar, n=14) [mL] | Reduction of inflammation (decrease in paw volume compared to the vehicle group) ([1]; intraplantar injection, 100 fmols) [%] | Mean Paw Volume ([2]; 0.1 μmol ip group, Day 0 (before treatment on days 9-13)) | Mean Paw Volume ([2]; 0.1 μmol ip on days 9-13, Day 14, vehicle 2.927) | Mean Paw Volume ([2]; 1.0 μmol ip group, Day 0 (before treatment on days 9-13)) | Mean Paw Volume ([2]; 1.0 μmol ip on days 9-13, Day 14, vehicle 2.927) | Reduction in inflammation ([2]; 1 μmol ip, prophylactically) [%] | Alteration in expression of Fas [3] | Effect on existing inflammation ([4]; dose of 1 μmol ip) | Paw Volume ([4]; individual rats, 1 μmol ip on days 11, 12 and 13 after adjuvant, after onset of inflammation, day 14, listed as Endomorphin (EM-1)) | Paw Volume, mean ([4]; n=8, SEM=0.10, 1 μmol ip on days 11, 12 and 13, day 14, vehicle mean 2.96) [mL] | Effect on apoptosis in cells following any of the culture periods [5] | Effect on ConA-induced apoptosis in thymocytes [5] | Effect on apoptosis in basal non-activated splenocytes and thymocytes [5] | Effect on ConA-induced apoptosis in rat splenocytes ([5]; ConA 1 or 5 μg/ml, pre-incubation at 10^−8 to 10^−18 mol/l) | Effect on LPS-induced apoptosis ([5]; LPS 5 and 25 μg/ml, 10-12% apoptosis)
endomorphin-1 [EM-1] | 2.779 | 2.381 | 2.638 | 2.260 | 2.450 | ≤ 16 | 1.613 | 2.494 | 1.723 | 2.349 | 20 | No alteration | reduce existing inflammation | 3.15 ml and 3.04 ml and 2.57 ml (2×) and 2.41 ml and 2.81 ml and 2.35 ml and 2.61 ml | 2.69 | No effect | Neither EM-1, EM-2 nor morphine (concentration range of morphine 10^−8 to 10^−18 mol/l) had any effect | had no effect | – | –
CN1CC[C@]23c4c5ccc(O)c4O[C@H]2[C@@H](O)C=C[C@H]3[C@H]1C5 [morphine, reference compound] | – | – | – | – | – | – | – | – | – | – | – | No alteration | – | – | – | No effect | Neither EM-1, EM-2 nor morphine (concentration range of morphine 10^−8 to 10^−18 mol/l) had any effect | had no effect | – | –
endomorphin-2 [EM-2] | – | – | – | – | – | – | – | – | – | – | – | No alteration | – | – | – | No effect | Neither EM-1, EM-2 nor morphine (concentration range of morphine 10^−8 to 10^−18 mol/l) had any effect | had no effect | not altered | did not alter
